Measurements taken from patent publication US7736677B2 (Metaproteomics, LLC, priority 2001, dated 2010).
Marks after values point to notes of the source that are not given here.

Tests used:
[1] = tested on: adiponectin; assay: Adiponectin secretion in LPS/3T3-L1 adipocytes; assay type: cell-based, murine; details: for Concentration of maximum stimulation of adiponectin secretion: LPS-treated D5 3T3-L1 adipocytes; for induction of adiponectin secretion: any of the doses tested
[2] = tested on: adiponectin; assay: Adiponectin secretion from insulin-resistant 3T3-L1 adipocytes; assay type: cell-based, murine
[3] = tested on: DBA/J mice; assay: Collagen induced rheumatoid arthritis murine model; assay type: in vivo, mouse
[4] = tested on: IL-6; assay: IL-6 secretion in LPS/3T3-L1 adipocytes; assay type: cell-based, murine; details: at the dose providing maximum inhibition; for IL-6 Index: indexed to LPS control
[5] = tested on: IL-6; assay: IL-6 secretion from insulin-resistant 3T3-L1 adipocytes; assay type: cell-based, murine; details: high insulin
[6] = molecular target: PKBγ (Homo sapiens, UniProt Q9Y243); assay: KinaseProfiler Assay; assay type: biochemical; details: 5 ug/ml, read-out: effect (as % of Control)
PKBγ, sequence (Q9Y243 whole entry): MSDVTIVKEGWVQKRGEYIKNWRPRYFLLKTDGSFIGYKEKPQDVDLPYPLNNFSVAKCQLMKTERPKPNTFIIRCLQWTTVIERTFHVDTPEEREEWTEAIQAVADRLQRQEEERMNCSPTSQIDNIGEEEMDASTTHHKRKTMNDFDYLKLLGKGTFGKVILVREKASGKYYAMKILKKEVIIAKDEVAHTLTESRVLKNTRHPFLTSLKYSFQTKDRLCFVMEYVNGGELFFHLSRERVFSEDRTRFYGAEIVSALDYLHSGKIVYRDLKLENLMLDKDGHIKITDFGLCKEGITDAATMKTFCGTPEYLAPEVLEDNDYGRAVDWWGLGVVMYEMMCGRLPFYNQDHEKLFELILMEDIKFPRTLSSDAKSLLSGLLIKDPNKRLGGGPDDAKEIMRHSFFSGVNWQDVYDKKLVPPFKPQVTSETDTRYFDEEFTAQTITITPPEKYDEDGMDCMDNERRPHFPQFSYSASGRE

[7] = molecular target: PKCβII (Homo sapiens, UniProt P05771); assay: KinaseProfiler Assay; assay type: biochemical; details: 5 ug/ml, read-out: effect (as % of Control)
PKCβII, sequence (P05771 1-673 isoform P05771-2): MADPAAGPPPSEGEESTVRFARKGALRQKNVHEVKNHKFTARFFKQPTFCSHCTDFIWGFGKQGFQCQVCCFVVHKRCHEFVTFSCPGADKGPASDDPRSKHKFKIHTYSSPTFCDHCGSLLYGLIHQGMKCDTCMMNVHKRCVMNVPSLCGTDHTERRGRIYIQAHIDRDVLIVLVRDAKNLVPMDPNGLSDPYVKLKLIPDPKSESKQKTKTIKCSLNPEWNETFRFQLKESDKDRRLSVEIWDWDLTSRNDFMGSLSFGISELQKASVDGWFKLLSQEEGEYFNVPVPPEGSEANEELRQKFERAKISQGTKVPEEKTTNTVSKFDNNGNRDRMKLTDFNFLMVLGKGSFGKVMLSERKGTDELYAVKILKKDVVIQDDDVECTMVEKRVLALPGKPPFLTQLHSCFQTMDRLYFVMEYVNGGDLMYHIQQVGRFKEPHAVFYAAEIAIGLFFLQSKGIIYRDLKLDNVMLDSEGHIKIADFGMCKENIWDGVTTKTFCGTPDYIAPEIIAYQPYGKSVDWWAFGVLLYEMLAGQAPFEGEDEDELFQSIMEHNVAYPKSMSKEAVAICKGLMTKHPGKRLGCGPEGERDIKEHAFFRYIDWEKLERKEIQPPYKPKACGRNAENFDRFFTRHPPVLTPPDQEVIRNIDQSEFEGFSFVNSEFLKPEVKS

[8] = tested on: adiponectin; assay: Adiponectin secretion from TNFα-treated 3T3-L1 adipocytes; assay type: cell-based, murine
Experimental: For two days, the cells were allowed grow to reach confluence. […] Adiponectin Assay—The adiponectin secreted into the medium was quantified using the Mouse Adiponectin Quantikine® Immunoassay kit with no modifications (R&D Systems, Minneapolis, Minn.). […] Statistical Calculations and Interpretation—All assays were preformed in duplicate. […] Differences among the doses and test agents were determined using the Student's t-test without correction for multiple comparisons; the nominal five percent probability of a type I error was selected.

[9] = tested on: IL-6; assay: IL-6 secretion from TNFα-treated 3T3-L1 adipocytes; assay type: cell-based, murine; details: 10 ng TNFα/ml
[10] = tested on: db/db mice; assay type: in vivo, mouse; details: three consecutive days
[11] = at the concentration of maximum stimulation

## CC(C)Cc1ccc(C(C)C(=O)O)cc1 (centres unmarked) [ibuprofen]
[1]; [11]
  % Stimulation of adiponectin secretion (maximum): 22%

## CC(C)CCC1=C(O)C(C(=O)C(C)C)=C(O)C(CCC(C)C)(CCC(C)C)C1=O [Hexahydro colupulone, hexahydrocolupulone]
[2]; slope of Hofstee plots
  Test Material at Half Maximal Secretion: 3.2 µg/mL

## Cc1c(C)c2c(c(C)c1O)CCC(C)(COc1ccc(CC3SC(=O)NC3=O)cc1)O2 (centres unmarked) [Troglitazone, troglitazone]
[2]; 5.0 μg/ml, ratio of adiponectin index to IL-6 index (Table 21)
  Adiponectin/IL-6: 1.12
[1]
  Concentration of maximum stimulation of adiponectin secretion: 0.625 µg/mL
[1]; [11]
  % Stimulation of adiponectin secretion (maximum): 15%

## C[C@]12C=CC(=O)C=C1CC[C@@H]1[C@@H]2[C@@H](O)C[C@@]2(C)[C@H]1CC[C@]2(O)C(=O)CO [prednisolone]
[3]; 10 mg/kg, days 30-42
  arthritic index: Significant reductions
[3]; mouse, in vivo
  serum IL-6 levels: reached a statistical significance

## O=C(O)c1ccccc1O [salicylic acid]
[1]
  induction of adiponectin secretion: failed to induce adiponectin secretion
[1]; at the concentration of maximum stimulation, indexed to LPS control
  Adiponectin Index: 0.96
[4]
  % Inhibition of IL-6 secretion (maximum): 48* %
  IL-6 Index: 0.52*

## COc1cc(O)c(CC=C(C)C)c(O)c1C(=O)/C=C/c1ccc(O)cc1 [Xanthohumol, xanthohumol]
[5]
  IL-6 secretion: Significant decreases in IL-6 secretion
[6]
  remaining activity at 5 µg/mL: 104%
[7]
  remaining activity at 5 µg/mL: 108%

## CCc1ccc(CCOc2ccc(CC3SC(=O)NC3=O)cc2)nc1 (centres unmarked) [Pioglitazone, pioglitazone]
[1]
  Concentration of maximum stimulation of adiponectin secretion: 1.25 µg/mL
[1]; [11]
  % Stimulation of adiponectin secretion (maximum): 12%
[4]
  IL-6 Index: 0.37*
[8]; 10 ng TNFα/ml, Example 17
  Concentration of maximum adiponectin secretion over four doses: 1.25 µg/mL
[8]; 1.0 μg/ml, indexed to TNFα control (Table 26)
  Adiponectin Index, Observed: 1.80

## COc1ccc2c(c1)c(CC(=O)O)c(C)n2C(=O)c1ccc(Cl)cc1 [Indomethacin, indomethacin]
[1]; [11]
  % Stimulation of adiponectin secretion (maximum): 9%
[9]
  IL-6 secretion in the presence of TNFα: no anti-inflammatory effect

## CC(=O)Oc1ccccc1C(=O)O [Aspirin, aspirin]
[1]
  induction of adiponectin secretion: failed to induce adiponectin secretion

## CN(C)C(=N)N=C(N)N [metformin]
[10]
  serum glucose relative to the controls: decreased
